Holding throughout (assay): NCI anticancer screen, dose series, 48 h
The subject of assay [1] is SNB-19 CNS.
Assay [2] deals with OVCAR-4 ovarian.
The test system of assay [3] is A498 renal.
Assay [4] deals with NCI-H226 lung.
The subject of assay [5] is CCRF-CEM leukemia.
Assay [6] concerns M14 melanoma.
Assay [7] has as its system EKVX NSCLC.
Assay [8] has as its system A549 NSCLC.
Assay [9] concerns SF-268 CNS.
For assay [10], the system named is HCC-2998 colon.

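Grown in 96-well plates, cells were treated for 48 hours with each compound at five concentrations. Insufficient inhibition: endpoint recorded as highest concentration tested. GI50 is the concentration that inhibits growth by half. Definition used: TGI = concentration required for complete inhibition of growth.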 A value given as a limit tells only on which side of the number the result lay.

With `O=C1c2ccccc2-c2cc([N+](=O)[O-])c([N+](=O)[O-])cc21`, the TGI in assay [1] was 3.36 µM; in assay [2], 3.31 µM; in assay [3] it was 33.1 µM; in assay [4] it was 12.6 µM; in assay [5] it was 0.958 µM; in assay [6], 3.43 µM. In addition, the TGI stood at 4.11 µM in assay [7], 6.23 µM in [8] and 5.13 µM in [9].

On to `OCC12C3C4C5C3C1C5C42` (configuration not stated), for which the TGI in [1], in assay [2], in assay [3], in assay [4], in [5] and in [6] was above 100 µM in each case. In addition, the TGI in assay [7], in assay [8] and in assay [9] was above 100 µM each time.

In the case of `CO/N=C(\COc1ccc2c(c1)[nH]c1ccccc12)c1ccc(F)cc1`, the GI50 in assay [10] was above 100 µM; in assay [1], 30 µM; in [2] it was 26.1 µM; in assay [4], above 100 µM; in assay [5], 22.6 µM; in assay [6], above 100 µM. Moreover, the GI50 was 65.9 µM in [7], 29.6 µM in [8] and above 100 µM in assay [9]. The TGI was above 100 µM in [10]; above 100 µM in assay [1]; above 100 µM in [2]; above 100 µM in [4]; 53.9 µM in assay [5]; above 100 µM in [6]. The TGI in [7], in [8] and in assay [9] was above 100 µM each time.

For the compound `COc1ccc(-c2nc(Nc3cc(C)[nH]n3)c3ccccc3n2)cc1`, the GI50 in assay [10] is 3.35 µM; in [1] it was 2.88 µM; in assay [2], 2.34 µM; in assay [3] it was 0.271 µM; in assay [4], 1.62 µM; in [5], 5.18 µM. The results for the GI50 in [6], in assay [8] and in assay [9] were 0.75 µM, 2.33 µM and 2.42 µM, respectively. Also, the TGI in assay [10] is above 77.4 µM; in assay [1], above 100 µM; in assay [2] it was above 72.5 µM; in assay [3], 1.46 µM; in [4], above 33.3 µM; in assay [5], 66.2 µM. Moreover, the results for the TGI in assay [6], in [8] and in assay [9] were 31.4 µM, 44.9 µM and above 59.4 µM, respectively.

Regarding `CCN(CC)CC1c2ccccc2C(CNc2ccccc2)N1C` (configuration not stated), the TGI in [10], in [1], in [2], in assay [5], in [6] and in assay [7] was above 100 µM each time. Also, the TGI in assay [8] and in assay [9] was above 100 µM in each case.

For `COc1cc2c3c(n(C)c(=O)c2cc1OC)-c1cc2c(cc1/C3=C\CCCCN1C(=O)c3ccccc3C1=O)OCO2`, the GI50 was 12.2 µM in assay [10]; 36.6 µM in assay [1]; 26 µM in assay [2]; 2.79 µM in assay [3]; 12.8 µM in assay [4]; 9.71 µM in assay [5]. The GI50 is 38.4 µM in assay [6], 7.03 µM in [8] and 9.12 µM in assay [9]. In addition, the TGI is 58.7 µM in assay [10]; above 100 µM in [1]; above 100 µM in assay [2]; 37.1 µM in assay [3]; 31.4 µM in assay [4]; 43.7 µM in assay [5]. Moreover, the results for the TGI in assay [6], in assay [8] and in assay [9] were above 100 µM, 27.9 µM and above 100 µM, respectively.

In the case of `COc1ccc(-c2cc(Cc3cccs3)c(=O)[nH]n2)cc1`, the TGI in assay [10], in assay [1], in [4], in [7], in assay [8] and in [9] was above 100 µM in each case.

Consider `Cc1ccc(-c2nnc(-c3nn(-c4ccccc4)c4nc5ccccc5nc34)o2)cc1`, for which the TGI was 76 µM in [1]; 8.79 µM in assay [2]; 30 µM in [4]; 64.3 µM in assay [5]; above 100 µM in assay [6]; above 100 µM in [7]. Besides, the TGI amounted to 41.4 µM in [8] and 38.4 µM in assay [9].

Regarding `NNC(=O)CS(=O)(=O)Nc1ncccn1`, the TGI in assay [1], in assay [2], in assay [3], in assay [4], in assay [6] and in [7] was above 100 µM throughout. Moreover, the TGI in assay [8] and in assay [9] was above 100 µM each time.

For the compound `COc1cccc(OC(=O)c2ccc(C(F)(F)F)nc2Nc2cc(Cl)ccc2C)c1`, the GI50 in assay [1] was above 100 µM; in assay [2] it was above 100 µM; in [3], 4.19 µM; in assay [4], 4.88 µM; in assay [5], 2.12 µM; in assay [6] it was 19.3 µM. The GI50 in [7] is 6.6 µM; in [8], 6.1 µM; in assay [9], 4.38 µM. In addition, the TGI in [1] was above 100 µM; in assay [2], above 100 µM; in assay [3], 20.9 µM; in assay [4], 31.5 µM; in [5], 5.13 µM; in [6], 56.6 µM. The TGI was 39.3 µM in [7], above 100 µM in [8] and above 100 µM in assay [9].

For the compound `COc1ccc(C=O)c([N+](=O)[O-])c1`, the TGI in assay [1] was above 100 µM; in [2] it was above 100 µM; in assay [3], above 100 µM; in assay [4], above 100 µM; in assay [5], 76.3 µM; in assay [6], above 100 µM. Also, the TGI in [7], in [8] and in assay [9] was above 100 µM throughout.

`CCOC(=O)C1C(=S)NC(=O)C1C#N` (configuration not stated): the TGI in assay [10], in [1], in assay [2], in assay [5], in assay [6] and in assay [7] was above 100 µM in each case. Moreover, the TGI in assay [8] and in [9] was above 100 µM each time.

(Values after PubChem BioAssay (NCI).)
